The values that follow come from EPA's ToxValDB 9.5 (doi:10.2903/j.efsa.2009.182r).

The test system of series [1] is Oncorhynchus mykiss. To be noted: acute; duration: 96 hours; mortality.
The test system of series [2] is Tagia sp. To be noted: acute; duration: 14 days; mortality.
Series [3] has as its system Rattus norvegicus. Particulars: for NOAEL: inhalation.
Series [4] concerns Apis mellifera. Particulars: acute; duration: 48 hours; oral; unspecified; mortality.
For series [5], the system named is Coturnix japonica. Particulars: acute; oral; mortality.
Setting [6] is: chronic, duration: 2 years, no effects.
[7] abbreviates: reproduction developmental, mortality.
[8] abbreviates: subchronic, duration: 90 days, no effects.

Each structure is given as a SMILES string.

For orientation: NOAEL means the highest dose or exposure tested at which no adverse effect was seen. With `[Al+3].[P-3]` [Aluminum phosphide], the LC50 in series [1] was found to be 4.68 ng/mL; in series [2] it was 664 mg/kg. The LD50 in series [3] (acute, oral, mortality) came to 8.7 mg/kg-day; in series [4], 0.24 µg/piece; in series [5] it was 49 mg/kg-day. The no observed adverse effect level (NOAEL) in series [3] (setting [6]) was 1.1 mg/kg-day; in series [3] (setting [7]) it was 1.9 mg/kg-day; in series [3] (setting [8]), 1.1 mg/kg-day.

Take `P` [Phosphine]: the NOAEL was determined as 1.1 mg/kg-day in series [3] (setting [6]); 1.9 mg/kg-day in series [3] (developmental, duration: 10 days, development); 1.9 mg/kg-day in series [3] (setting [7]); 1.11 mg/kg-day in series [3] (subchronic, duration: 90 days, mortality); 1.1 mg/kg-day in series [3] (setting [8]).
